Measured values published in patent publication US20200080055A1, “COMPOSITIONS AND METHODS FOR GENERATING HAIR CELLS BY UPREGULATING PI3K” (Frequency Therapeutics, Inc., priority 2018, published 2020).
Entries after “also recorded” stand apart in the source; their conditions may differ.

Experiments:
[1] = system: cochlear Lgr5 progenitor cells; test: Lgr5+ assay: expansion and enrichment of cochlear Lgr5 progenitor cells in 3D culture; format: cell-based, mouse
Excerpt: “Stem Cell Proliferation Assay” as used herein is an assay to determine the capacity for agent(s) to induce the creation of stem cells from a starting cell population. In an exemplary Stem Cell Proliferation Assay, the number of cells for an initial cell population is harvested from a Lgr5-GFP mouse such as a B6.129P2-Lgr5tm1(cre/ERT2)Cle/J mouse (also known as Lgr5-EGFP-IRES-creERT2 or Lgr5-GFP mouse, Jackson Lab Stock No: 008875) between the age of 0 to 5 days, by isolating the organ of Corti sensory epithelium and dissociating the epithelium into single cells. Approximately 5000 cells are entrapped in 40 μl of culture substrate (for example: Matrigel (Corning, Growth Factor Reduced)) and placed at the center of wells in a 24-well plate with 500 μl of an appropriate culture media, growth factors and agent being tested. Appropriate culture media and growth factors include Advanced DMEM/F12 with media Supplements (1×N2, 1×B27, 2 mM Glutamax, 10 mM HEPES, 1 mM N-acetylcysteine, and 100 U/ml Penicillin/[…] Streptomycin) and growth factors (50 ng/ml EGF, 50 ng/ml bFGF, and 50 ng/ml IGF-1) as well as the agent(s) being assessed are added into each well. Cells are cultured for 10 days in a standard cell culture incubator at 37° C. and 5% CO2, with media change every 2 days. The number of Lgr5+ cells is quantified by counting the number of cells identified as Lgr5+ in an In Vitro Lgr5 activity assay. The fraction of cells that are Lgr5+ is quantified by dividing the number of cells identified as Lgr5+ in a cell population by the total number of cells present in the cell population. The number of hair cells in a population may be measured by staining with hair cell marker (e.g., MyosinVIIa), or using an endogenous reporter of hair cell genes (e.g., Pou4f3-GFP, Atoh1-nGFP) and analyzing using flow cytometry. The fraction of cells that are hair cells is quantified by dividing the number of cells identified as hair cells in a cell population by the total number of cells present in the cell population. Gene and/or protein expression and/or activity is measured in this assay using methods known in the art such as by PCR, Nanostring, immunostaining, RNAseq, RNA hybridization, or Western blot analysis.
Neonatal Lgr5-EGFP-IRES-Cre-ER mice (The Jackson Laboratory, strain 8875) were used to analyze the effects of small molecules on cochlear stem cell expansion (see Barker et al., Nature 449, 1003-7 (2007). This strain allowed for visualization and quantification of EGFP cells.
All animal studies were conducted under an approved institutional protocol per National Institutes of Health guidelines. Using neonatal animals, cochleae were dissected and the organ of Corti (sensory epithelium) was separated from the stria vascularis (ion transport epithelium) and the modiolus (nerve tissue). Epithelia were then collected and treated with TrypLE for 15-20 minutes to obtain single cells. The cells were then filtered ([…]) and suspended in a Matrigel (Corning) dome for 3D culture seeded at 0.5 cochlea per well.
Expansion of Lgr5 Cells: Cells were cultured in a 3D system and bathed in a serum free 1:1 mixture of DMEM and F12, supplemented with Glutamax (GIBCO), N2, B27 (Invitrogen), EGF (50 ng/mL; Chemicon), bFGF (50 ng/mL; Chemicon), IGF-1 (50 ng/mL; Chemicon), and small molecules for seven days. Media was changed every other day. Treatments were run in triplicate or quadruplicate.
Lgr5 cells were quantified after 7-10 days. Cell colonies were dissociated into single cells using TrypLE. The cells were then stained with propidium iodide (PI) and analyzed using a flow cytometer to count Lgr5-EGFP cells. The percentage of viable Lgr5 cells was plotted against the concentration in GraphPad Prism.
Organ of Corti are dissected from Lgr5 GFP+ mice and dissociated as single cells as described above. Background media contains the same supplements and growth factors at the same concentrations as described above. […]

[2] = system: HDAC; conditions: Table 5; cited from earlier work

## CC(C)(C)C(=O)Nc1ccc2c(c1)C(=O)C(=O)c1ccccc1-2 [SF1670]
[1]; SF1670 0.1 uM added to CHIR
  enhancement of CHIR-elicited expansion and enrichment of cochlear Lgr5 progenitor cells: further enhanced

## CCn1cc(C(=O)O)c(=O)c2c(N)c(F)c(NC3CCCCC3)cc21 [AS1842856]
[1]; AS1842856 425 nM combined with VPA 1 mM
  enrichment of Lgr5 cells (percentage): enriched according to percentage
[1]; AS1842856 425 nM in background of EFI
  expansion of cochlear Lgr5+ progenitor cells in culture: elicits the expansion
[1]; AS1842856 concentration series in background of EFI
  LGR5+ cell growth and enrichment / expansion of cochlear progenitor cells: concentration-dependent effects; also recorded: enhances expansion of cochlear progenitor cells

## O=C([O-])CCCc1ccccc1.[Na+] [Na phenylbutyrate]
[2]
  Class selectivity: Class I >

## VO-Ohpic
[1]; VO-Ohpic 3 uM added to CHIR
  enhancement of CHIR-elicited expansion and enrichment of cochlear Lgr5 progenitor cells: enhanced

## Cc1c[nH]c(-c2cnc(NCCNc3ccc(C#N)cn3)nc2-c2ccc(Cl)cc2Cl)n1 [CHIR99021]
[1]; CHIR alone (GSK3 inhibition)
  expansion and enrichment of cochlear Lgr5 progenitor cells in culture: elicits the expansion and enrichment
